From article PMC10207715, “Dual inhibition of IDO1/TDO2 enhances anti-tumor immunity in platinum-resistant non-small cell lung cancer” (Cancer & Metabolism, 2023)

Legend:
[1] = target: T1, tryptophan 2,3-dioxygenase-2 (TDO2) (Homo sapiens, UniProt P48775); test: cellular kynurenine colorimetric assay in GL261-hTDO2 cells, […] h; type: cell-based
T1 construct: full-length human TDO2, overexpressed in GL261 cells

[2] = target: T2, indoleamine 2,3-dioxygenase-1 (IDO1) (Homo sapiens, UniProt P14902); test: cellular kynurenine colorimetric assay in LLC-hIDO1 cells, […] h; type: cell-based
T2 construct: human IDO1 in expression vector F279-V5/hIDO1, stably transfected in LLC cells
T2 sequence (P14902 whole entry): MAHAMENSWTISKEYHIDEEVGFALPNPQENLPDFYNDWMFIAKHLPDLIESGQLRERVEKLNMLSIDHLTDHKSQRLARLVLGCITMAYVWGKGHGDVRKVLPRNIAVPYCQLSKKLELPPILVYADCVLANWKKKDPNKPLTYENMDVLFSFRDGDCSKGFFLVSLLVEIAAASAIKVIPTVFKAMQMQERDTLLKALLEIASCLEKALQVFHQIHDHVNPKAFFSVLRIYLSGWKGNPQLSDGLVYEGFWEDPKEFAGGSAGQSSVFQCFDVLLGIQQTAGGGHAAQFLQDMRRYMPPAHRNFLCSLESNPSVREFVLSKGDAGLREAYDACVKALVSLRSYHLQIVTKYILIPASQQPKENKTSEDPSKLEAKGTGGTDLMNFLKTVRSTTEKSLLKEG

T1 sequence (P48775 whole entry): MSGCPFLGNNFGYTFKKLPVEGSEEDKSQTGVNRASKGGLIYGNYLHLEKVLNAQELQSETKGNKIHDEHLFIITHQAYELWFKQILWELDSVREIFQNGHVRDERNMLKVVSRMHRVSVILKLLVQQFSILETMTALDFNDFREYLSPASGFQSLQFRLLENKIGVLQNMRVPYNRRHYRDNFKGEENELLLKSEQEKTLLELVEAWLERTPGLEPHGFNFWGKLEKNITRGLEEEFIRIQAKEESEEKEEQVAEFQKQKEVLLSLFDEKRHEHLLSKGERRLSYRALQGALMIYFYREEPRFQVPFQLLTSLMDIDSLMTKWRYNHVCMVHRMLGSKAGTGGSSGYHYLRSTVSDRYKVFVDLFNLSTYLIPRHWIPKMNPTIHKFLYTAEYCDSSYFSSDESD

- IC50 [1]: 250 nM
- IC50 [2]: 170 nM
Substance: AT-0174
